Assay results as given in patent US5840697A, “Peptide inhibitors of calmodulin” (Torrey Pines Institute for Molecular Studies, priority 1996, dated 1998).
Square brackets hold non-standard residues; d marks the D form. Peptide text beside a SMILES is read from it.

The compounds below were run against calmodulin (Homo sapiens, UniProt P0DP23) (assay: calcium-dependent phosphodiesterase assay (calmodulin activity)). Conditions: 50 μM peptide; PDE without calmodulin = 100%, calmodulin without peptide = 0%.
Format: biochemical
Description: In the calcium dependent phosphodiesterase assay, calmodulin can be assayed by its ability to stimulate phosphodiesterase activity as determined by a two-step assay procedure illustrated by reactions (1) and (2) below. [drawing 1]
During the first step of the assay cyclic adenosine 3'5'-monophosphate (cAMP) is incubated with calcium-activated phosphodiesterase (Cal-PDE), which hydrolyses the 3'bond producing adenosine 5'-monophosphate (5'-AMP). During the second step, 5'-AMP is quantitatively converted into adenosine and inorganic phosphate (Pi) through the action of a 5-nucleotidase. The reaction is followed by the measurement of the Pi formed by reading the absorbance at 660 nm after reacting with ammonium molybdate. The amount of Pi formed is directly related to the phosphodiesterase activity which depends on the level of activation by calmodulin.
To sample assay tubes were added the following components: assay buffer, 25 ul; CaCl2, 5 ul; 5'-nucleotidase, 7.5 ul (stock solution is 10 units/ml); calmodulin 5 units; calmodulin inhibitor peptides to obtain the desired final concentration of 50 μM. The volume was then made up to 200 ul with water. Control blanks were prepared replacing the peptides with water. The added components were thoroughly mixed and the tubes incubated at 30° C. for 10 min. […] The samples were centrifuged to remove the protein precipitate and the 50 ul of the supernatant was withdrawn for phosphate measurement. […] The absorbance of the solution were read at 660 nm using water as a blank, identified as control "Calmo."
The two controls used in the assay, one without and one with calmodulin, as indicated in FIG. 1 and Table I were as follows,: (1) PDE:
These three controls were used in the calcium-dependent phosphodiesterase assay for reproducibility of the assay.
In addition to the calcium-dependent phosphodiesterase assay data, IC50 values were determined for many of the peptides. The assay carried out for the determination in the IC50 values differed from the above screening assay by the concentration of the peptides being tested.
(3) TFP: trifluoperazine; and (4) Calmidasolium: (1-[bis-(4-chlorophenyl)methyl]-3[-2-(2,4-dichlorophenyl)-2[(2,4-dichlorophenyl)methoxy]-ethyl]-1H-imidazolium chloride. The IC50 values were calculated using sigmoidal curve software (Graphpad, ISI; San Diego, Calif.) using the % inhibition at different mixture concentrations (see protocol for determination of % inhibition).
The (L)-amino acid counterpart for five (5) of the all (D)-amino acid peptides identified from the PS-SCL were synthesized in order to study the stereoselectivity of the inhibition.

Row | inhibition at 50 µM [%] | Compound
1 | 79 | CC[C@@H](C)[C@@H](NC(=O)[C@@H](Cc1c[nH]c2ccccc12)NC(=O)[C@@H](CC(C)C)NC(C)=O)C(=O)N[C@H](Cc1c[nH]cn1)C(=O)N[C@H](Cc1c[nH]cn1)C(=O)N[C@H](CCCNC(=N)N)C(N)=O [Ac-(D)Leu-(D)Trp-(D)Ile-(D)His-(D)His-(D)Arg-NH2] (Ac-[dL][dW][dI][dH][dH][dR]-NH2)

Same assay, conditions: Table I; assayed at 75, 50 and 12.5 μM, average of repeated assays; read-out: Average IC50

Row | Compound | IC50 [µM]
2 | CC(=O)N[C@H](CC(C)C)C(=O)N[C@H](CCC(N)=O)C(=O)N[C@H](CCCNC(=N)N)C(=O)N[C@H](Cc1c[nH]cn1)C(=O)N[C@H](Cc1c[nH]cn1)C(=O)N[C@H](CCCNC(=N)N)C(N)=O [Ac-(D)Leu-(D)Gln-(D)Arg-(D)His-(D)His-(D)Arg-NH2] (Ac-[dL][dQ][dR][dH][dH][dR]-NH2) | 20
3 | CC(=O)N[C@H](CC(C)C)C(=O)N[C@H](CCC(N)=O)C(=O)N[C@H](CCCNC(=N)N)C(=O)N[C@H](Cc1c[nH]cn1)C(=O)N[C@H](Cc1c[nH]cn1)C(=O)N[C@H](Cc1c[nH]c2ccccc12)C(N)=O [Ac-(D)Leu-(D)Gln-(D)Arg-(D)His-(D)His-(D)Trp-NH2] (Ac-[dL][dQ][dR][dH][dH][dW]-NH2) | 25
4 | CC(=O)N[C@H](CC(C)C)C(=O)N[C@H](CCC(N)=O)C(=O)N[C@H](CCCNC(=N)N)C(=O)N[C@H](Cc1c[nH]cn1)C(=O)N[C@H](CC(C)C)C(=O)N[C@H](CCCNC(=N)N)C(N)=O [Ac-(D)Leu-(D)Gln-(D)Arg-(D)His-(D)Leu-(D)Arg-NH2] (Ac-[dL][dQ][dR][dH][dL][dR]-NH2) | 25
5 | CC(=O)N[C@H](CC(C)C)C(=O)N[C@H](CCC(N)=O)C(=O)N[C@H](CCCNC(=N)N)C(=O)N[C@H](Cc1c[nH]cn1)C(=O)N[C@H](CC(C)C)C(=O)N[C@H](Cc1c[nH]c2ccccc12)C(N)=O [Ac-(D)Leu-(D)Gln-(D)Arg-(D)His-(D)Leu-(D)Trp-NH2] (Ac-[dL][dQ][dR][dH][dL][dW]-NH2) | 20
6 | CC[C@@H](C)[C@@H](NC(=O)[C@@H](CCCNC(=N)N)NC(=O)[C@@H](CCC(N)=O)NC(=O)[C@@H](CC(C)C)NC(C)=O)C(=O)N[C@H](Cc1c[nH]cn1)C(=O)N[C@H](CCCNC(=N)N)C(N)=O [Ac-(D)Leu-(D)Gln-(D)Arg-(D)Ile-(D)His-(D)Arg-NH2] (Ac-[dL][dQ][dR][dI][dH][dR]-NH2) | 26
7 | CC[C@@H](C)[C@@H](NC(=O)[C@@H](CCCNC(=N)N)NC(=O)[C@@H](CCC(N)=O)NC(=O)[C@@H](CC(C)C)NC(C)=O)C(=O)N[C@H](Cc1c[nH]cn1)C(=O)N[C@H](Cc1c[nH]c2ccccc12)C(N)=O [Ac-(D)Leu-(D)Gln-(D)Arg-(D)Ile-(D)His-(D)Trp-NH2] (Ac-[dL][dQ][dR][dI][dH][dW]-NH2) | 19
8 | CC[C@@H](C)[C@@H](NC(=O)[C@@H](CCCNC(=N)N)NC(=O)[C@@H](CCC(N)=O)NC(=O)[C@@H](CC(C)C)NC(C)=O)C(=O)N[C@H](CC(C)C)C(=O)N[C@H](CCCNC(=N)N)C(N)=O [Ac-(D)Leu-(D)Gln-(D)Arg-(D)Ile-(D)Leu-(D)Arg-NH2] (Ac-[dL][dQ][dR][dI][dL][dR]-NH2) | 35
9 | CC[C@@H](C)[C@@H](NC(=O)[C@@H](CCCNC(=N)N)NC(=O)[C@@H](CCC(N)=O)NC(=O)[C@@H](CC(C)C)NC(C)=O)C(=O)N[C@H](CC(C)C)C(=O)N[C@H](Cc1c[nH]c2ccccc12)C(N)=O [Ac-(D)Leu-(D)Gln-(D)Arg-(D)Ile-(D)Leu-(D)Trp-NH2] (Ac-[dL][dQ][dR][dI][dL][dW]-NH2) | 24
10 | CC[C@@H](C)[C@@H](NC(=O)[C@@H](CCC(N)=O)NC(=O)[C@@H](CC(C)C)NC(C)=O)C(=O)N[C@H](Cc1c[nH]cn1)C(=O)N[C@H](Cc1c[nH]cn1)C(=O)N[C@H](CCCNC(=N)N)C(N)=O [Ac-(D)Leu-(D)Gln-(D)Ile-(D)His-(D)His-(D)Arg-NH2] (Ac-[dL][dQ][dI][dH][dH][dR]-NH2) | 20
11 | CC[C@@H](C)[C@@H](NC(=O)[C@@H](CCC(N)=O)NC(=O)[C@@H](CC(C)C)NC(C)=O)C(=O)N[C@H](Cc1c[nH]cn1)C(=O)N[C@H](Cc1c[nH]cn1)C(=O)N[C@H](Cc1c[nH]c2ccccc12)C(N)=O [Ac-(D)Leu-(D)Gln-(D)Ile-(D)His-(D)His-(D)Trp-NH2] (Ac-[dL][dQ][dI][dH][dH][dW]-NH2) | 27
12 | CC[C@@H](C)[C@@H](NC(=O)[C@@H](CCC(N)=O)NC(=O)[C@@H](CC(C)C)NC(C)=O)C(=O)N[C@H](Cc1c[nH]cn1)C(=O)N[C@H](CC(C)C)C(=O)N[C@H](Cc1c[nH]c2ccccc12)C(N)=O [Ac-(D)Leu-(D)Gln-(D)Ile-(D)His-(D)Leu-(D)Trp-NH2] (Ac-[dL][dQ][dI][dH][dL][dW]-NH2) | 30
13 | CC[C@@H](C)[C@@H](NC(=O)[C@@H](CCC(N)=O)NC(=O)[C@@H](CC(C)C)NC(C)=O)C(=O)N[C@@H](C(=O)N[C@H](Cc1c[nH]cn1)C(=O)N[C@H](CCCNC(=N)N)C(N)=O)[C@H](C)CC [Ac-(D)Leu-(D)Gln-(D)Ile-(D)Ile-(D)His-(D)Arg-NH2] (Ac-[dL][dQ][dI][dI][dH][dR]-NH2) | 35
14 | CC[C@@H](C)[C@@H](NC(=O)[C@@H](CCC(N)=O)NC(=O)[C@@H](CC(C)C)NC(C)=O)C(=O)N[C@@H](C(=O)N[C@H](Cc1c[nH]cn1)C(=O)N[C@H](Cc1c[nH]c2ccccc12)C(N)=O)[C@H](C)CC [Ac-(D)Leu-(D)Gln-(D)Ile-(D)Ile-(D)His-(D)Trp-NH2] (Ac-[dL][dQ][dI][dI][dH][dW]-NH2) | 17

Second part, the compound after the results:

Row | IC50 [µM] | Compound
15 | 20 | CC[C@@H](C)[C@@H](NC(=O)[C@@H](CCC(N)=O)NC(=O)[C@@H](CC(C)C)NC(C)=O)C(=O)N[C@@H](C(=O)N[C@H](CC(C)C)C(=O)N[C@H](CCCNC(=N)N)C(N)=O)[C@H](C)CC [Ac-(D)Leu-(D)Gln-(D)Ile-(D)Ile-(D)Leu-(D)Arg-NH2] (Ac-[dL][dQ][dI][dI][dL][dR]-NH2)
16 | 8.1 | CC(=O)N[C@H](CC(C)C)C(=O)N[C@H](Cc1c[nH]c2ccccc12)C(=O)N[C@H](CCCNC(=N)N)C(=O)N[C@H](Cc1c[nH]cn1)C(=O)N[C@H](Cc1c[nH]cn1)C(=O)N[C@H](CCCNC(=N)N)C(N)=O [Ac-(D)Leu-(D)Trp-(D)Arg-(D)His-(D)His-(D)Arg-NH2] (Ac-[dL][dW][dR][dH][dH][dR]-NH2)
17 | 16 | CC(=O)N[C@H](CC(C)C)C(=O)N[C@H](Cc1c[nH]c2ccccc12)C(=O)N[C@H](CCCNC(=N)N)C(=O)N[C@H](Cc1c[nH]cn1)C(=O)N[C@H](CC(C)C)C(=O)N[C@H](CCCNC(=N)N)C(N)=O [Ac-(D)Leu-(D)Trp-(D)Arg-(D)His-(D)Leu-(D)Arg-NH2] (Ac-[dL][dW][dR][dH][dL][dR]-NH2)
18 | 7.5 | CC[C@@H](C)[C@@H](NC(=O)[C@@H](CCCNC(=N)N)NC(=O)[C@@H](Cc1c[nH]c2ccccc12)NC(=O)[C@@H](CC(C)C)NC(C)=O)C(=O)N[C@H](Cc1c[nH]cn1)C(=O)N[C@H](CCCNC(=N)N)C(N)=O [Ac-(D)Leu-(D)Trp-(D)Arg-(D)Ile-(D)His-(D)Arg-NH2] (Ac-[dL][dW][dR][dI][dH][dR]-NH2)
19 | 20 | CC[C@@H](C)[C@@H](NC(=O)[C@@H](Cc1c[nH]c2ccccc12)NC(=O)[C@@H](CC(C)C)NC(C)=O)C(=O)N[C@H](Cc1c[nH]cn1)C(=O)N[C@H](Cc1c[nH]cn1)C(=O)N[C@H](CCCNC(=N)N)C(N)=O [Ac-(D)Leu-(D)Trp-(D)Ile-(D)His-(D)His-(D)Arg-NH2] (Ac-[dL][dW][dI][dH][dH][dR]-NH2)
20 | 7.8 | CC[C@@H](C)[C@@H](NC(=O)[C@@H](Cc1c[nH]c2ccccc12)NC(=O)[C@@H](CC(C)C)NC(C)=O)C(=O)N[C@H](Cc1c[nH]cn1)C(=O)N[C@H](CC(C)C)C(=O)N[C@H](CCCNC(=N)N)C(N)=O [Ac-(D)Leu-(D)Trp-(D)Ile-(D)His-(D)Leu-(D)Arg-NH2] (Ac-[dL][dW][dI][dH][dL][dR]-NH2)
